Measurements reported in US10919908B2, “Thienopyrimidinone derivative and application thereof in preparing anticancer drug” (Henan Genuine Biotech Co., Ltd., priority 2017, dated 2021).

Experiments:
[1] = test system: Multiple myeloma tumor cells (H929); assay: In vitro cytotoxicity, MTT assay, 48 hours exposure; assay type: cell-based; details: Homo sapiens, NCI-H929, MTT cell viability
Protocol: Multiple myeloma tumor cells (H929) were used for toxicity studies, and the cells were distributed in microtiter plates and exposed to the compounds tested for 48 hours.

Mcl-1 protein = Mcl-1 protein (Homo sapiens, UniProt Q07820); assay: Inhibition of Mcl-1 activity by fluorescence polarization (FP) competition with a fluorescein-labeled ligand; assay type: binding; details: 10 nM Mcl-1 protein, 10 nM labeled ligand, 2 hours at room temperature
Sequence of Mcl-1 protein (Q07820 whole entry): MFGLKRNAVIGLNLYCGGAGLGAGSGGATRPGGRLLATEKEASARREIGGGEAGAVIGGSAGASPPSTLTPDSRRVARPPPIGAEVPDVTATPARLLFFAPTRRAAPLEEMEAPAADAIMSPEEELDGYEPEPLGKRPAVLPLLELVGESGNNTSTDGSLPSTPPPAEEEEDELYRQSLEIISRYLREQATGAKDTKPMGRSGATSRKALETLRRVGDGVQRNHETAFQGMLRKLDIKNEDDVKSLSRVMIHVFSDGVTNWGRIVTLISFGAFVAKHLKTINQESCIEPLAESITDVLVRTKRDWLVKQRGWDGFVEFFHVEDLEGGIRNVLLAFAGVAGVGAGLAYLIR

IC50 (Mcl-1 protein) [nM]	SMILES	IC50 [1] [nM]
< 1	Cc1c(-c2c(-c3ccc(F)o3)sc3ncnc(O[C@@H](C(=O)O)C(F)(F)c4ccccc4OCc4ccnn4CC(F)(F)F)c23)ccc(OCCN2CCN(C)CC2)c1Cl [Compound 102]	> 10
1 to 10	Cc1c(-c2c(-c3ccc(F)o3)sc3ncnc(O[C@H](C(=O)O)C(F)(F)c4ccccc4OCc4ccnn4CC(F)(F)F)c23)ccc(OCCN2CCN(C)CC2)c1Cl [Compound 103]	> 10
–	Cc1c(-c2c(-c3ccc(F)o3)sc3ncnc(O[C@H](Cc4ccccc4OCc4ccnn4CC(F)(F)F)C(=O)O)c23)ccc(OCCN2CCN(C)CC2)c1Cl [II, reference compound]	> 10
